Values joined by “and” are separate entries in the source; they are usually repeats but may differ in a detail not shown here. Equal values may be shown once.
Legend:
[1] = Colorimetric alkylation rate constant assay with TNB^2− as non-specific thiol; type: physicochemical; parameters: second-order: unit not given here; conditions: for remaining [B]: in µM
[2] = Colorimetric alkylation rate constant assay with thiol N1; type: physicochemical; conditions: for remaining [A]: N1 from calibration curve (N1 in uM); for remaining [A] / remaining [B]: in µM
[3] = Time 2891 sec, [B]0 = 250, Replicates 1-3
[4] = Time 3071 sec, [B]0 = 250, Replicates 1-3
[5] = Time 3252 sec, [B]0 = 250, Replicates 1-3
[6] = Time 3433 sec, [B]0 = 250, Replicates 1-3
[7] = Time 3613 sec, [B]0 = 250, Replicates 1-3

Compound: O=C(CCl)N1CCOCC1 [Compound C4]
- remaining [B] ([1]; Replicate 1, 723 sec, [B]0 = 250): 243.209
- remaining [B] ([1]; Replicate 1, 903 sec, [B]0 = 250): 242.478
- remaining [B] ([1]; Replicate 1, 1084 sec, [B]0 = 250): 241.798
- remaining [B] ([1]; Replicate 1, 1265 sec, [B]0 = 250): 241.104
- remaining [B] ([1]; Replicate 1, 1445 sec, [B]0 = 250): 240.437
- remaining [B] ([1]; Replicate 1, 1626 sec, [B]0 = 250): 239.756
- remaining [B] ([1]; Replicate 1, 1806 sec, [B]0 = 250): 239.088
- remaining [B] ([1]; Replicate 1, 1988 sec, [B]0 = 250): 238.42
- remaining [B] ([1]; Replicate 1, 2168 sec, [B]0 = 250): 237.79
- remaining [B] ([1]; Replicate 1, 2349 sec, [B]0 = 250): 237.085
- remaining [B] ([1]; Replicate 1, 2530 sec, [B]0 = 250): 236.392
- remaining [B] ([1]; Replicate 1, 2710 sec, [B]0 = 250): 235.737
- remaining [B] ([1]; Replicate 2, 542 sec, [B]0=250): 242.118
- remaining [B] ([1]; Replicate 2, 723 sec, [B]0=250): 241.425
- remaining [B] ([1]; Replicate 2, 903 sec, [B]0=250): 240.732
- remaining [B] ([1]; Replicate 2, 1084 sec, [B]0=250): 240.077
- remaining [B] ([1]; Replicate 2, 1265 sec, [B]0=250): 239.371
- remaining [B] ([1]; Replicate 2, 1445 sec, [B]0=250): 238.754
- remaining [B] ([1]; Replicate 2, 1626 sec, [B]0=250): 238.023
- remaining [B] ([1]; Replicate 2, 1806 sec, [B]0=250): 237.355
- remaining [B] ([1]; Replicate 2, 1988 sec, [B]0=250): 236.687
- remaining [B] ([1]; Replicate 2, 2168 sec, [B]0=250): 236.019
- remaining [B] ([1]; Replicate 2, 2349 sec, [B]0=250): 235.377
- remaining [B] ([1]; Replicate 2, 2530 sec, [B]0=250): 234.722
- remaining [B] ([1]; Replicate 2, 2710 sec, [B]0=250): 234.041
- remaining [B] ([1]; Replicate 3, 723 sec, [B]0=250): 243.07
- remaining [B] ([1]; Replicate 3, 903 sec, [B]0=250): 242.352
- remaining [B] ([1]; Replicate 3, 1084 sec, [B]0=250): 241.558
- remaining [B] ([1]; Replicate 3, 1265 sec, [B]0=250): 240.878
- remaining [B] ([1]; Replicate 3, 1445 sec, [B]0=250): 240.248
- remaining [B] ([1]; Replicate 3, 1626 sec, [B]0=250): 239.542
- remaining [B] ([1]; Replicate 3, 1806 sec, [B]0=250): 238.786
- remaining [B] ([1]; Replicate 3, 1988 sec, [B]0=250): 238.244
- remaining [B] ([1]; Replicate 3, 2168 sec, [B]0=250): 237.513
- remaining [B] ([1]; Replicate 3, 2349 sec, [B]0=250): 236.921
- remaining [B] ([1]; Replicate 3, 2530 sec, [B]0=250): 236.215
- remaining [B] ([1]; Replicate 3, 2710 sec, [B]0=250): 235.51
- second-order [1, 3]: 0.0007509 and 0.0006764 and 0.0006669
- remaining [B] [1, 3]: 234.892 and 235.081 and 233.424
- second-order [1, 4]: 0.000786 and 0.0007119 and 0.0007036
- remaining [B] [1, 4]: 234.187 and 234.35 and 232.743
- second-order [1, 5]: 0.0008202 and 0.000746 and 0.0007357
- remaining [B] [1, 5]: 233.519 and 233.72 and 232.088
- second-order [1, 6]: 0.0008541 and 0.0007785 and 0.0007706
- remaining [B] [1, 6]: 232.889 and 233.04 and 231.445
- second-order [1, 7]: 0.0008877 and 0.0008119 and 0.0008054
- remaining [B] [1, 7]: 232.246
- second-order ([1]; Time 3794 sec, [B]0 = 250, Replicates 1-3): 0.0009231 and 0.0008424 and 0.0008418
- second-order ([1]; Time 3974 sec, [B]0 = 250, Replicates 1-3): 0.0009567 and 0.0008773 and 0.0008752
- second-order ([1]; Time 4155 sec, [B]0 = 250, Replicates 1-3): 0.00099 and 0.0009118 and 0.0009131
- second-order ([1]; Time 4336 sec, [B]0 = 250, Replicates 1-3): 0.001024 and 0.0009453 and 0.0009474
- second-order ([1]; Time 4516 sec, [B]0 = 250, Replicates 1-3): 0.00106 and 0.0009785 and 0.000984
- second-order ([1]; Time 4697 sec, [B]0 = 250, Replicates 1-3): 0.001096 and 0.001013 and 0.001019
- second-order ([1]; Time 4878 sec, [B]0 = 250, Replicates 1-3): 0.001128 and 0.001047 and 0.001054
- second-order ([1]; Time 5058 sec, [B]0 = 250, Replicates 1-3): 0.001163 and 0.00108 and 0.001089
- second-order ([1]; Time 5239 sec, [B]0 = 250, Replicates 1-3): 0.001202 and 0.001118 and 0.001125
- second-order ([1]; Time 5419 sec, [B]0 = 250, Replicates 1-3): 0.001235 and 0.001153 and 0.001158
- second-order ([1]; Time 5600 sec, [B]0 = 250, Replicates 1-3): 0.001269 and 0.001184 and 0.001195
- second-order ([1]; Time 5781 sec, [B]0 = 250, Replicates 1-3): 0.001306 and 0.001219 and 0.001231
- second-order ([1]; Time 5961 sec, [B]0 = 250, Replicates 1-3): 0.001339 and 0.001252 and 0.001269
- remaining [A] ([2]; Replicate 1, time 576 sec): 78.3846
- remaining [B] ([2]; Replicate 1, time 576 sec, [B]0 = 250): 224.265
- second-order ([2]; Replicate 1, time 576 sec, second-order plot value): 0.001202
- remaining [A] ([2]; Replicate 1, time 606 sec): 77.4156
- remaining [B] ([2]; Replicate 1, time 606 sec, [B]0 = 250): 223.296
- second-order ([2]; Replicate 1, time 606 sec, second-order plot value): 0.001257
- remaining [A] ([2]; Replicate 2, time 576 sec): 78.0283
- remaining [B] ([2]; Replicate 2, time 576 sec, [B]0=250): 224.887
- second-order ([2]; Replicate 2, time 576 sec, second-order plot value): 0.001179
- remaining [A] ([2]; Replicate 2, time 606 sec): 77.1496
- remaining [B] ([2]; Replicate 2, time 606 sec, [B]0=250): 224.008
- second-order ([2]; Replicate 2, time 606 sec, second-order plot value): 0.00123
- remaining [A] ([2]; Replicate 3, time 576 sec): 79.3863
- remaining [B] ([2]; Replicate 3, time 576 sec, [B]0=250): 224.839
- second-order ([2]; Replicate 3, time 576 sec, second-order plot value): 0.001164
- remaining [A] ([2]; Replicate 3, time 606 sec): 78.4394
- remaining [B] ([2]; Replicate 3, time 606 sec, [B]0=250): 223.892
- second-order ([2]; Replicate 3, time 606 sec, second-order plot value): 0.001217
- remaining [B] ([2]; time 0 sec, [B]0 = 250, replicates 1-3): 247.294 and 246.181 and 246.372
- second-order ([2]; time 0 sec, replicates 1-3): 0.0001443 and 0.0001055 and 0.0001506
- remaining [B] ([2]; time 30 sec, [B]0 = 250, replicates 1-3): 245.834 and 244.471 and 245.125
- second-order ([2]; time 30 sec, replicates 1-3): 0.0001956 and 0.0001641 and 0.0002207
- remaining [B] ([2]; time 60 sec, [B]0 = 250, replicates 1-3): 244.264 and 243.246 and 243.566
- second-order ([2]; time 60 sec, replicates 1-3): 0.0002611 and 0.0002284 and 0.000272
- remaining [B] ([2]; time 91 sec, [B]0 = 250, replicates 1-3): 243.074 and 241.878 and 242.29
- second-order ([2]; time 91 sec, replicates 1-3): 0.0003157 and 0.0002781 and 0.0003304
- remaining [B] ([2]; time 121 sec, [B]0 = 250, replicates 1-3): 241.802 and 240.652 and 241.043
- second-order ([2]; time 121 sec, replicates 1-3): 0.0003702 and 0.0003322 and 0.0003836
- remaining [B] ([2]; time 151 sec, [B]0 = 250, replicates 1-3): 240.639 and 239.37 and 239.711
- second-order ([2]; time 151 sec, replicates 1-3): 0.0004294 and 0.0003825 and 0.0004404
- remaining [B] ([2]; time 182 sec, [B]0 = 250, replicates 1-3): 239.367 and 238.23 and 238.549
- second-order ([2]; time 182 sec, replicates 1-3): 0.0004821 and 0.0004386 and 0.0004918
- remaining [B] ([2]; time 212 sec, [B]0 = 250, replicates 1-3): 238.15 and 237.033 and 237.472
- second-order ([2]; time 212 sec, replicates 1-3): 0.0005317 and 0.0004932 and 0.0005467
- remaining [B] ([2]; time 242 sec, [B]0 = 250, replicates 1-3): 236.878 and 235.893 and 236.139
- second-order ([2]; time 242 sec, replicates 1-3): 0.0005943 and 0.0005514 and 0.0005999
- remaining [B] ([2]; time 273 sec, [B]0 = 250, replicates 1-3): 235.688 and 234.696 and 235.147
- second-order ([2]; time 273 sec, replicates 1-3): 0.0006417 and 0.0006068 and 0.0006568
- remaining [B] ([2]; time 303 sec, [B]0 = 250, replicates 1-3): 234.525 and 233.67 and 234.042
- second-order ([2]; time 303 sec, replicates 1-3): 0.0006954 and 0.000662 and 0.0007064
- remaining [B] ([2]; time 333 sec, [B]0 = 250, replicates 1-3): 233.361 and 232.444 and 232.88
- second-order ([2]; time 333 sec, replicates 1-3): 0.0007529 and 0.0007182 and 0.0007667
- remaining [B] ([2]; time 364 sec, [B]0 = 250, replicates 1-3): 232.279 and 231.447 and 231.944
- second-order ([2]; time 364 sec, replicates 1-3): 0.0007999 and 0.0007714 and 0.0008167
- remaining [B] ([2]; time 394 sec, [B]0 = 250, replicates 1-3): 231.17 and 230.25 and 230.782
- second-order ([2]; time 394 sec, replicates 1-3): 0.0008594 and 0.0008269 and 0.0008777
- remaining [B] ([2]; time 424 sec, [B]0 = 250, replicates 1-3): 230.115 and 229.224 and 229.847
- second-order ([2]; time 424 sec, replicates 1-3): 0.000908 and 0.0008806 and 0.000931
- remaining [B] ([2]; time 454 sec, [B]0 = 250, replicates 1-3): 228.924 and 228.283 and 228.77
- second-order ([2]; time 454 sec, replicates 1-3): 0.000965 and 0.0009423 and 0.0009806
- remaining [B] ([2]; time 485 sec, [B]0 = 250, replicates 1-3): 227.977 and 227.229 and 227.834
- second-order ([2]; time 485 sec, replicates 1-3): 0.001015 and 0.0009923 and 0.001037
- remaining [B] ([2]; time 515 sec, [B]0 = 250, replicates 1-3): 226.922 and 226.203 and 226.814
- second-order ([2]; time 515 sec, replicates 1-3): 0.001071 and 0.001049 and 0.001093
- remaining [B] ([2]; time 545 sec, [B]0 = 250, replicates 1-3): 225.813 and 225.205 and 225.879
- second-order ([2]; time 545 sec, replicates 1-3): 0.001123 and 0.001109 and 0.001148
